Results as given in ChEMBL document CHEMBL3779850, “Synthesis, in vitro evaluation, and molecular modeling investigation of benzenesulfonimide peroxisome proliferator-activated receptors α antagonists” (Eur J Med Chem, 2016).
Active and inactive are the calls of the source. No cut-off for these calls is given here.

Columns and labels:
[1] = target: T1, Peroxisome proliferator-activated receptor alpha (Homo sapiens) (UniProt Q07869); assay: Transactivation of PPARalpha (unknown origin) expressed in HEK293A cells at 150 uM after 16 to 18 hrs by luciferase reporter assay relative to control; type: cell-based; conditions: HEK293-A
T1 sequence (whole entry): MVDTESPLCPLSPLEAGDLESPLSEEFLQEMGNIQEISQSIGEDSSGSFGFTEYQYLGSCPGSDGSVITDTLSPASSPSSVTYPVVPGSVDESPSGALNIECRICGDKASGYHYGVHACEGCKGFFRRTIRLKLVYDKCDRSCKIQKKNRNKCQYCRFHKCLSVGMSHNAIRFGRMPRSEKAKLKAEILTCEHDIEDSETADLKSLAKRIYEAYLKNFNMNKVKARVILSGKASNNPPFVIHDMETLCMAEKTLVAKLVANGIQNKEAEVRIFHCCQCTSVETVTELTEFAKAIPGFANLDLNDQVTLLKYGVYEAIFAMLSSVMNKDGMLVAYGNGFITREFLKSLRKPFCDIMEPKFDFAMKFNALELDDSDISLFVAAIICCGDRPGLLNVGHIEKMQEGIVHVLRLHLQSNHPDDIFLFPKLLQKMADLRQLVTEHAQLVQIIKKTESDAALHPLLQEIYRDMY

[2] = target: T2, Peroxisome proliferator-activated receptor alpha (Homo sapiens, UniProt Q07869); assay: Antagonist activity at PPARalpha (unknown origin) expressed in HEK293A cells assessed as inhibition of GW7647-induced transactivation after 16 to 18 hrs by luciferase reporter assay; type: cell-based, HEK293-A
T2 sequence (Q07869 whole entry): T1 sequence (whole entry)

[3] = target: T3, Peroxisome proliferator-activated receptor gamma (Homo sapiens) (UniProt P37231); assay: Antagonist activity at PPARgamma (unknown origin) expressed in HEK293A cells after 16 to 18 hrs by luciferase reporter assay; type: cell-based; conditions: HEK293-A
T3 sequence (whole entry): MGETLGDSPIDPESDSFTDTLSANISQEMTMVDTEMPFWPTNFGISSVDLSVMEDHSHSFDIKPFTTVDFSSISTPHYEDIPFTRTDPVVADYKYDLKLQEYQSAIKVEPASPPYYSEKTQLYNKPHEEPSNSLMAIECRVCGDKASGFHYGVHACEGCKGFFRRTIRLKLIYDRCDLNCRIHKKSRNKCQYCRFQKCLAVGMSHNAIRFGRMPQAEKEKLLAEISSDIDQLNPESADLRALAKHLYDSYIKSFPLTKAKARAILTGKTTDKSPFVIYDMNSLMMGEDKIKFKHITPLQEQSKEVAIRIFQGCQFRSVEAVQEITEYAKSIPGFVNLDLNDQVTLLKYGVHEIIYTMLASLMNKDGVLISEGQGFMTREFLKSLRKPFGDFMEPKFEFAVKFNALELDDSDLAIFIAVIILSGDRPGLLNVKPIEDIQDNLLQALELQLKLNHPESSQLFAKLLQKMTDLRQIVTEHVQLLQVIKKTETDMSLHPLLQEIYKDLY

[4] = target: T4, Peroxisome proliferator-activated receptor delta (Homo sapiens) (UniProt Q03181); assay: Transactivation of PPARdelta (unknown origin) expressed in HEK293A cells after 16 to 18 hrs by luciferase reporter assay; type: cell-based; conditions: HEK293-A
T4 sequence (whole entry): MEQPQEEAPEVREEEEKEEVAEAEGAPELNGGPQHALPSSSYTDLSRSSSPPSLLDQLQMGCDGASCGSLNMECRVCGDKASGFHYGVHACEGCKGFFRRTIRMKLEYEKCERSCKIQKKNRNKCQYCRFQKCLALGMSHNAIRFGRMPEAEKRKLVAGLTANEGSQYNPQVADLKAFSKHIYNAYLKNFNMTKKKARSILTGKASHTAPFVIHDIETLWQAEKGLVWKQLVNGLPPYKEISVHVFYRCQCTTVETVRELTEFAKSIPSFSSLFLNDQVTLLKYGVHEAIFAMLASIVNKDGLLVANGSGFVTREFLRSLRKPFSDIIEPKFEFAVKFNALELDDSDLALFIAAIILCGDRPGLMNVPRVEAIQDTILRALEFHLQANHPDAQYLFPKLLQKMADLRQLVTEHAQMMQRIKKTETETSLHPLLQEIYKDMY

[5] = target: T3, Peroxisome proliferator-activated receptor gamma (Homo sapiens); assay: Transactivation of PPARgamma (unknown origin) expressed in HEK293A cells at IC50 after 16 to 18 hrs by luciferase reporter assay; type: cell-based; conditions: HEK293-A
[6] = target: T1, Peroxisome proliferator-activated receptor alpha (Homo sapiens); assay: Antagonist activity at PPARalpha in human HepG2 cells assessed as inhibition of GW7647-induced CPT1 mRNA expression at 150 uM after 48 hrs by RT-PCR method; type: cell-based
[7] = target: T1, Peroxisome proliferator-activated receptor alpha (Homo sapiens); assay: Transactivation of PPARalpha in human HepG2 cells assessed as increase in CPT1 mRNA expression at 150 uM after 48 hrs by RT-PCR method; type: cell-based

fold change (FC) [1]	IC50 [2] [µM]	inhibition [3]	Activity [4]	Activity [5]	inhibition [6]	Activity [7]	Compound
0.05	4.5	Active	inactive	–	–	–	CCCC(Sc1nc2cc(Cl)ccc2s1)C(=O)NS(=O)(=O)c1ccc(NC(=O)c2ccccc2)cc1 (stereo not given)
0.9	–	–	inactive	Active	–	–	O=C(NS(=O)(=O)c1ccc(Cl)cc1)C(Sc1nc2cc(Cl)ccc2s1)c1ccccc1 (stereo not given)
0.04	6.86	Active	inactive	–	–	–	CCCC(Sc1nc2cc(Cl)ccc2s1)C(=O)NS(=O)(=O)c1ccc(Cl)cc1 (stereo not given)
0.22	0.82	Active	inactive	–	Active	inactive	O=C(NS(=O)(=O)c1ccc([N+](=O)[O-])cc1)C(Sc1nc2cc(Cl)ccc2s1)c1ccccc1 (stereo not given)
0.08	7.65	–	–	–	–	–	CC(C)(Oc1ccc(C(=O)c2ccc(Cl)cc2)cc1)C(=O)NS(=O)(=O)c1ccccc1
< 0.01	0.68	Active	inactive	–	Active	inactive	CCCC(Sc1nc2cc(Cl)ccc2s1)C(=O)NS(=O)(=O)c1ccc(OC)cc1 (stereo not given)
0.05	8.8	–	–	–	–	–	Cc1ccc(C)c(OCCCC(C)(C)C(=O)NS(=O)(=O)c2ccccc2)c1
< 0.01	4.6	Active	inactive	–	–	–	CCCC(Sc1nc2cc(Cl)ccc2s1)C(=O)NS(=O)(=O)c1ccc(C)cc1 (stereo not given)
0.03	0.85	Active	inactive	–	Active	inactive	CCCC(Sc1nc2cc(Cl)ccc2s1)C(=O)NS(=O)(=O)c1ccc([N+](=O)[O-])cc1 (stereo not given)
0.28	0.8	–	–	–	–	–	CC(C)(Oc1ccc(CCNC(=O)c2ccc(Cl)cc2)cc1)C(=O)NS(=O)(=O)c1ccccc1
0.2	108	Active	inactive	–	–	–	CCCC(Sc1nc2cc(Cl)ccc2s1)C(=O)NS(=O)(=O)c1ccc(NC(C)=O)cc1 (stereo not given)
0.47	0.65	–	–	–	–	–	CC(C)(Oc1ccc(Cl)cc1)C(=O)NS(=O)(=O)c1ccccc1
